Key:
[1] = tested on: anti-HIV-1 group O antibodies present in human serum; assay: ELISA: biotinylated peptide bound to streptavidin-coated wells, HIV-1 group O sera, anti-IgG:HRP, OPD, absorbance at 492 nm; type: binding
Method: Serological recognition of the peptide by HIV-1 group O sera. Peptide 147 was evaluated for its ability to be recognized by anti-HIV-1 group O antibodies present in human serum from infected individuals. All group O samples were confirmed to be positive for HIV-1 group O by reverse transcriptase-polymerase chain reaction (RT-PCR) amplification of viral gp41 sequences using O-specific primers. The identity of the PCR product was further confirmed by DNA sequencing.
This technique involves binding of the antigen to a solid phase, bringing the fluid to be tested into contact with the antigen-coated solid phase, washing away any unbound material, and then detecting bound antibodies with an enzyme-labeled second antibody. The presence of the enzyme is detected using a chromogenic or luminogenic substrate.
To evaluate biotinylated peptide 147, wells of a microtiter plate were coated with streptavidin at a concentration of 1 μg/ml in 50 mM carbonate buffer, pH 9.6 (200 μl/well). Excess unbound streptavidin was removed by washing several times with phosphate buffered saline (PBS). Biotinylated peptide 147 was dissolved in a minimal volume of pure DMSO and then diluted into PBS to a concentration of 0.5 μg/ml. Two hundred microliters of the peptide solution were added to each well and the peptide allowed to bind to the streptavidin. After removing unbound peptide by washing with PBS, serum samples obtained from HIV-1 group O-infected patients were added to the wells of the plate. After a suitable incubation period, unbound material was removed by washing with PBS. A dilution of an anti-IgG:horse radish peroxidase (HRP) conjugate was added to each well and incubated for 30 minutes at 37° C. Unbound material was removed by extensive washing. Substrate solution containing O-phenylenediamine (OPD) and H2O2 was added to each well and the plate was further incubated, protected from light. After a 30 minute incubation period at room temperature, the reaction was terminated by the addition of 50 μl of 4N H2SO4 and the absorbance of each well was read at 492 nm.
Peptide 147 was first tested by using undiluted (10 μl) serum samples. The sample measurements are in optical density (OD).
A panel of serially diluted group O sera was tested with peptide 147 in order to evaluate the sensitivity of an ELISA using this antigen. Streptavidin-coated plates were prepared and loaded with peptide 147 as before, and tested using the dilutional panels. In addition, in order to compare the performance of […] peptide 147 with that of a genuine group O sequence, a second peptide was synthesized (peptide 146) corresponding to the sequence of the DUR variant.
These peptides cover precisely the same region of gp41, and were tested in parallel.

type B sample = assay: ELISA: biotinylated peptide bound to streptavidin-coated wells, type B sample; type: binding, human; conditions: undiluted
[2] = tested on: antibodies to HIV-1 group O; assay: Chemiluminescent ELISA: serially diluted peptide on streptavidin-coated wells, serum ODS007b 1:60, anti-human IgG:HRP, luminol; type: binding; conditions: for luminescent units: serum ODS007b 1:60
Method: To compare the performance of peptide 147 to another genuine group O sequence, the peptide corresponding to the ANT70 sequence was synthesized (peptide 80). Peptides 147 and 80 were dissolved at the same concentration, serially diluted, and bound to streptavidin-coated wells. A 1:60 dilution of serum sample ODS007b (see Table 3) was added to all wells and incubated. After washing, an anti-human IgG:HRP conjugate was added, incubated, and the wells again thoroughly washed. In this case, a chemiluminescent substrate was used, consisting of luminol and a peracid salt. The emitted light was quantified using a luminometer. The results are tabulated in Table 4 and shown graphically in FIG. 2.

## NQQRLNSWGCKGRIICYTSARWH (HIV Consensus) [peptide 147]
[1]; a number of the dilutional panels, in words
  performance compared with a genuine group O sequence (peptide 146): equaled or significantly exceeded that of a genuine group O sequence
[1]; highly diluted samples, in words
  binding of antibodies against the group O gp41 immunodominant region: suitable antigen capable of binding antibodies against the group O gp41 immunodominant region
[1]; negative control (uninfected blood donor), undiluted sample (10 μl)
  OD492: 0.056 OD
[1]; panel OP1, sample OP1A, dilution of original sample 2
  OD492: 2.500 OD
[1]; panel OP1, sample OP1B, dilution of original sample 4
  OD492: 2.298 OD
[1]; panel OP1, sample OP1C, dilution of original sample 8
  OD492: 2.465 OD
[1]; panel OP1, sample OP1D, dilution of original sample 16
  OD492: 2.387 OD
[1]; panel OP1, sample OP1E, dilution of original sample 32
  OD492: 2.013 OD
[1]; panel OP1, sample OP1F, dilution of original sample 64
  OD492: 1.448 OD
[1]; panel OP1, sample OP1G, dilution of original sample 128
  OD492: 1.150 OD
[1]; panel OP1, sample OP1H, dilution of original sample 256
  OD492: 0.927 OD
[1]; panel OP1, sample OP1I, dilution of original sample 512
  OD492: 0.504 OD
[1]; panel OP1, sample OP1J, dilution of original sample 1024
  OD492: 0.053 OD
[1]; panel OP2, sample OP2A, dilution of original sample 5
  OD492: 2.236 OD
[1]; panel OP2, sample OP2B, dilution of original sample 10
  OD492: 2.320 OD
[1]; panel OP2, sample OP2C, dilution of original sample 20
  OD492: 2.157 OD
[1]; panel OP2, sample OP2D, dilution of original sample 40
  OD492: 1.844 OD
[1]; panel OP2, sample OP2E, dilution of original sample 80
  OD492: 1.061 OD
[1]; panel OP2, sample OP2F, dilution of original sample 160
  OD492: 0.689 OD
[1]; panel OP2, sample OP2G, dilution of original sample 320
  OD492: 0.327 OD
[1]; panel OP2, sample OP2H, dilution of original sample 640
  OD492: 0.184 OD
[1]; panel OP2, sample OP2I, dilution of original sample 1280
  OD492: 0.179 OD
[1]; panel OP2, sample OP2J, dilution of original sample 2560
  OD492: 0.090 OD
[1]; panel OP3, sample OP3A, dilution of original sample 300
  OD492: 0.229 OD
[1]; panel OP3, sample OP3B, dilution of original sample 600
  OD492: 0.373 OD
[1]; panel OP3, sample OP3C, dilution of original sample 1200
  OD492: 0.211 OD
[1]; panel OP4, sample OP4A, dilution of original sample 100
  OD492: 0.774 OD
[1]; panel OP4, sample OP4B, dilution of original sample 200
  OD492: 0.608 OD
[1]; panel OP4, sample OP4C, dilution of original sample 400
  OD492: 0.398 OD
[1]; panel OP4, sample OP4D, dilution of original sample 800
  OD492: 0.277 OD
[1]; panel OP4, sample OP4E, dilution of original sample 1600
  OD492: 0.040 OD
[1]; panel OP5, sample OP5A, dilution of original sample 100
  OD492: 1.624 OD
[1]; panel OP5, sample OP5B, dilution of original sample 200
  OD492: 1.027 OD
[1]; panel OP5, sample OP5C, dilution of original sample 400
  OD492: 0.225 OD
[1]; panel OP5, sample OP5D, dilution of original sample 800
  OD492: 0.302 OD
[1]; panel OP6, sample OP6A, dilution of original sample 50
  OD492: 0.667 OD
[1]; panel OP7-2, sample OP7-2A, dilution of original sample 100
  OD492: 2.081 OD
[1]; panel OP7-2, sample OP7-2B, dilution of original sample 200
  OD492: 1.817 OD
[1]; panel OP7-2, sample OP7-2C, dilution of original sample 400
  OD492: 1.346 OD
[1]; panel OP7-2, sample OP7-2D, dilution of original sample 800
  OD492: 0.847 OD
[1]; sample ODS001, undiluted
  OD492: 2.500 OD
[1]; sample ODS002, undiluted
  OD492: 2.500 OD
[1]; sample ODS003, undiluted
  OD492: 2.500 OD
[1]; sample ODS004, undiluted
  OD492: 2.500 OD
[1]; sample ODS006, undiluted
  OD492: 2.500 OD
[1]; sample ODS007a, undiluted
  OD492: 2.500 OD
[1]; sample ODS007b, undiluted
  OD492: 2.500 OD
[1]; sample ODS009, undiluted
  OD492: 2.500 OD
[1]; undiluted specimens, in words
  recognition by antibodies produced in response to an HIV-1 group O infection: capable of recognizing peptide 147
Type B sample
  OD492: 1.926 OD
[2]; in words
  detection of antibodies to HIV-1 group O compared with a naturally occurring isolate (peptide 80): comparable to that of a naturally occurring isolate
[2]; peptide 0.020 ug/ml
  luminescent units: 0.619 luminescent units
[2]; peptide 0.039 ug/ml
  luminescent units: 0.504 luminescent units
[2]; peptide 0.078 ug/ml
  luminescent units: 0.740 luminescent units
[2]; peptide 0.156 ug/ml
  luminescent units: 1.199 luminescent units
[2]; peptide 0.313 ug/ml
  luminescent units: 2.090 luminescent units
[2]; peptide 0.625 ug/ml
  luminescent units: 3.093 luminescent units
[2]; peptide 1.250 ug/ml
  luminescent units: 2.885 luminescent units
[2]; peptide 2.500 ug/ml
  luminescent units: 2.374 luminescent units

— US20060216699A1, “Peptides for the detection of HIV-1 group O” (priority 1998, published 2006)
